Read-outs that look alike come from different tables or passages of the source.
Biological target: T1, Full-length glucokinase (beta cell isoform) (Homo sapiens, UniProt P35557)
T1 construct: Full-length glucokinase (beta cell isoform) was His-tagged at N-terminus; His tag (N); made in house
T1 sequence (P35557 1-465): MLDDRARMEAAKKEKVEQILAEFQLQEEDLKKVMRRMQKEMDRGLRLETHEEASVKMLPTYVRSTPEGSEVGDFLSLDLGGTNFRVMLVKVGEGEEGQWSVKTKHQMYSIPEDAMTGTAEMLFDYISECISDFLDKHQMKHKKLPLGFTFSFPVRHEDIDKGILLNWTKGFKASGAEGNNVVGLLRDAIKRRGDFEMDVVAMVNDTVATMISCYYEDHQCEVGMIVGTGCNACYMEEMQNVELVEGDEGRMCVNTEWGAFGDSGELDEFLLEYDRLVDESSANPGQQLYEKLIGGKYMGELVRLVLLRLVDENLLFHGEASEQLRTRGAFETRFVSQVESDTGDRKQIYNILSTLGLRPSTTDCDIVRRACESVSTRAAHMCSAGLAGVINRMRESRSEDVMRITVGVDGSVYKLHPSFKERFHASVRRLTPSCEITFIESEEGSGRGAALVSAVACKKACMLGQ
Test: Glucokinase biochemical assay (PK/LDH-coupled, NADH depletion at 340 nm): % activation, EC50, % max activation
Conditions: 5 mM glucose; for activation at 10 µM: read-out: % Activation at 10 uM; for EC50: read-out: EC50; for Emax: fitted maximum activation, read-out: % Max Activation
Method in brief: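 N-terminally His-tagged full-length human beta-cell glucokinase, room temperature, 5 mM glucose, 1 mM ATP, PK/LDH-coupled with 0.7 mM NADH, 1% DMSO final. Initial velocity from the 200–900 s slope of A340 decline. % activation = (Va/Vo−1)×100, measured across compound concentrations.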

[1] = 10 uM compound, % Activation=(Va/Vo−1)×100
[2] = compound at 10 uM, 1 mM ATP, room temperature

activation at 10 µM [1] | EC50 (GK activation) | Emax | EC50 (1 mM ATP, room temperature) | activation at 10 µM [2] | Emax (1 mM ATP) | SMILES
107% | 7300 nM | 148% | – | – | – | Cc1nc(COc2cc(C(=O)Nc3ccn(C)n3)cc3c2CC(C)(C)O3)no1 [Example 96, 2,2-Dimethyl-4-(5-methyl-[1,2,4]oxadiazol-3-ylmethoxy)-2,3-dihydro-benzofuran-6-carboxylic acid (1-methyl-1H-pyrazol-3-yl)-amide]
94.2% | 1700 nM | 74% | – | – | – | CCc1ccc(NC(=O)c2cc(Oc3ccc(S(C)(=O)=O)cc3)c3cc(C)oc3c2)nc1 [Example 265, N-(5-Ethylpyridin-2-yl)-2-methyl-4-(4-(methylsulfonyl)-phenoxy)benzofuran-6-carboxamide]
89.2% | 4500 nM | 126% | – | – | – | Cc1cc2c(Oc3ccc(S(C)(=O)=O)cc3)cc(C(=O)Nc3ccc(F)cn3)cc2o1 [Example 256, N-(5-Fluoropyridin-2-yl)-2-methyl-4-(4-(methylsulfonyl)-phenoxy)benzofuran-6-carboxamide]
– | – | – | > 10000 nM | 48.6% | – | CC(C)CN1CCc2c(Oc3ccc(C(=O)N(C)C)c(F)c3)cc(C(=O)Nc3ccn(C)n3)cc2C1=O [Example 392, 5-(4-(Dimethylcarbamoyl)-3-fluorophenoxy)-2-isobutyl-N-(1-methyl-1H-pyrazol-3-yl)-1-oxo-1,2,3,4-tetrahydroisoquinoline-7-carboxamide]
11.2% | – | – | – | – | – | Cc1ccc(NC(=O)c2cc(Oc3ccc(S(C)(=O)=O)cc3)c3c(C)csc3c2)nc1 [Example 350, 3-Methyl-N-(5-methylpyridin-2-yl)-4-[4-(methylsulfonyl)-phenoxy]-1-benzothiophene-6-carboxamide]
165% | 690 nM | 184% | – | – | – | Cn1ccc(NC(=O)c2cc(Oc3ccc(S(C)(=O)=O)cc3)c3c(c2)OC(C)(CO)C3)n1 (stereo not drawn) [Example 227, 2-Hydroxymethyl-4-(4-methanesulfonyl-phenoxy)-2-methyl-2,3-dihydro-benzofuran-6-carboxylic acid (1-methyl-1H-pyrazol-3-yl)-amide]
114% | 520 nM | 110% | – | – | – | Cc1ccc(NC(=O)c2cc(Oc3ccc(S(C)(=O)=O)cc3)c3ccsc3c2)nc1 [Example 355, 4-(4-Methanesulfonyl-phenoxy)-benzo[b]thiophene-6-carboxylic acid(5-methyl-pyridin-2-yl)-amide]
133% | 455 nM | 147% | – | – | – | CN(C)C1CN(C(=O)c2ccc(Oc3cc(C(=O)Nc4ccn(C)n4)cc4c3CC(C)(C)O4)cc2)C1 [Example 49, 4-[4-(3-Dimethylamino-azetidine-1-carbonyl)-phenoxy]-2,2-dimethyl-2,3-dihydro-benzofuran-6-carboxylic acid(1-methyl-1H-pyrazol-3-yl)-amide]
92.6% | 8800 nM | 137% | – | – | – | C[C@@H](CO)COc1cc(C(=O)Nc2ccn(C)n2)cc2c1CC(C)(C)O2 [Example 102, 4-((S)-3-Hydroxy-2-methyl-propoxy)-2,2-dimethyl-2,3-dihydro-benzofuran-6-carboxylic acid (1-methyl-1H-pyrazol-3-yl)-amide]
129% | 620 nM | 142% | – | – | – | Cc1cc2c(Oc3ccc(S(C)(=O)=O)cc3)cc(C(=O)Nc3ccn(C)n3)cc2s1 [Example 360, 4-(4-(Methylsulfonyl)phenoxy)-2-methyl-N-(1-methyl-1H-pyrazol-3-yl)benzo[b]thiophene-6-carboxamide]
101% | 120 nM | 97% | – | – | – | CN(C)C(=O)c1ccc(Oc2cc(C(=O)Nc3ccn(C)n3)cc3c2CC(C)(CO)O3)cc1F (stereo not drawn) [Example 229, 4-(4-Dimethylcarbamoyl-3-fluoro-phenoxy)-2-hydroxymethyl-2-methyl-2,3-dihydro-benzofuran-6-carboxylic acid (1-methyl-1H-pyrazol-3-yl)-amide]
238% | 840 nM | 258% | – | – | – | CCNC(=O)c1ccc(Oc2cc(C(=O)Nc3cnn(C)n3)cc3c2CC(C)(C)O3)cn1 [Example 174, 5-[2,2-Dimethyl-6-(2-methyl-2H-[1,2,3]triazol-4-ylcarbamoyl)-2,3-dihydro-benzofuran-4-yloxy]-pyridine-2-carboxylic acid ethylamide]
151% | 500 nM | 156% | – | – | – | COCC1(C)Cc2c(Oc3ccc(S(C)(=O)=O)cc3)cc(C(=O)Nc3ccn(C)n3)cc2O1 (stereo not drawn) [Example 228, 4-(4-Methanesulfonyl-phenoxy)-2-methoxymethyl-2-methyl-2,3-dihydro-benzofuran-6-carboxylic acid (1-methyl-1H-pyrazol-3-yl)-amide]
148% | 1300 nM | 184% | – | – | – | Cc1cc2c(Oc3ccc(S(C)(=O)=O)cc3)cc(C(=O)Nc3ccn(C)n3)cc2o1 [Example 271, 4-(4-(Methylsulfonyl)phenoxy)-2-methyl-N-(1-methyl-1H-pyrazol-3-yl)benzofuran-6-carboxamide]
53.3% | 3400 nM | 71% | – | – | – | Cc1cc2c(Oc3ccc(S(C)(=O)=O)cc3)cc(C(=O)Nc3ccc4c(n3)CCC4)cc2o1 [Example 254, N-(6,7-Dihydro-5H-cyclopenta[b]pyridin-2-yl)-2-methyl-4-(4-(methylsulfonyl)-phenoxy)benzofuran-6-carboxamide]
49.5% | 42.8 nM | 53% | – | – | – | Cc1ccc(NC(=O)c2cc(Oc3ccc(C(=O)N(C)C)c(F)c3)c3c(c2)OC(C)(C)C3)nc1 [Example 148, 4-(4-Dimethylcarbamoyl-3-fluoro-phenoxy)-2,2-dimethyl-2,3-dihydro-benzofuran-6-carboxylic acid (5-methyl-pyridin-2-yl)-amide]
182% | 950 nM | 161% | – | – | – | Cn1ccc(NC(=O)c2cc(Oc3ccc(C(=O)NCCO)c(F)c3)c3c(c2)OC(C)(C)C3)n1 [Example 72, 4-[3-Fluoro-4-(2-hydroxy-ethylcarbamoyl)-phenoxy]-2,2-dimethyl-2,3-dihydro-benzofuran-6-carboxylic acid(1-methyl-1H-pyrazol-3-yl)-amide]
– | – | – | 610 nM | 212% | 231% | CN(CC#N)C(=O)c1ccc(Oc2cc(C(=O)Nc3ccn(C)n3)cc3c2CC(C)(C)O3)cn1 [Example 399, 5-[2,2-Dimethyl-6-(1-methyl-1H-pyrazol-3-ylcarbamoyl)-2,3-dihydro-benzofuran-4-yloxy]-pyridine-2-carboxylic acid cyanomethyl-methyl-amide]
61.9% | 130 nM | 68% | – | – | – | Cc1ccc(NC(=O)c2cc(Oc3ccc(S(=O)(=O)N4CCC4)cc3)c3cc(C)oc3c2)nc1 [Example 297, 4-(4-(Azetidin-1-ylsulfonyl)phenoxy)-2-methyl-N-(5-methylpyridin-2-yl)-benzofuran-6-carboxamide]
89.5% | 1400 nM | 106% | – | – | – | Cc1ccc(NC(=O)c2cc(OC(C)C)cc3occc23)nc1 [Example 344, 6-Isopropoxy-N-(5-methylpyridin-2-yl)benzofuran-4-carboxamide]
164% | 210 nM | 177% | – | – | – | Cn1ccc(NC(=O)c2cc(Oc3ccc(C(=O)N4CCC4)cc3F)c3c(c2)OC(C)(C)C3)n1 [Example 32, 4-[4-(Azetidine-1-carbonyl)-2-fluoro-phenoxy]-2,2-dimethyl-2,3-dihydro-benzo-furan-6-carboxylic acid(1-methyl-1H-pyrazol-3-yl)-amide]
171% | 1600 nM | 156% | – | – | – | CCCc1noc(COc2cc(C(=O)Nc3ccn(C)n3)cc3c2CC(C)(C)O3)n1 [Example 100, 2,2-Dimethyl-4-(3-propyl-[1,2,4]oxadiazol-5-ylmethoxy)-2,3-dihydro-benzofuran-6-carboxylic acid (1-methyl-1H-pyrazol-3-yl)-amide]
145% | 1700 nM | 165% | – | – | – | Cc1cc2c(Oc3ccc(S(C)(=O)=O)cc3)cc(C(=O)Nc3cnn(C)n3)cc2o1 [Example 267, 2-Methyl-N-(2-methyl-2H-1,2,3-triazol-4-yl)-4-(4-(methylsulfonyl)phenoxy)-benzofuran-6-carboxamide]

— patent US8119624B2, “Fused phenyl amido heterocyclic compounds” (Pfizer Inc., priority 2006, dated 2012)
